Patent US6989396B2, “Tropane alkaloid multidrug resistance inhibitors from Erythroxylum pervillei and use of the same” (The Board of Trustees of the University of Illinois, priority 2001, dated 2006)
Converted amounts (≈) assume the structure as drawn.

Tests used:
BC1, breast cancer = assay: In vitro cytotoxicity, human tumor panel: BC1; type: cell-based; details: Homo sapiens, read-out: ED50 BCI
Experimental: (§1) Cytotoxicity assay. Compounds 1–9 were evaluated for cytotoxic activity against a panel of human cancer cell lines, including KB-V1 in the presence and absence of VLB, according to an established protocol (68).

Lu1, lung cancer = assay: In vitro cytotoxicity, human tumor panel: Lu1; type: cell-based; details: Homo sapiens, read-out: ED50 Lu1
Experimental: as §1

Col2, colon cancer = assay: In vitro cytotoxicity, human tumor panel: Col2; type: cell-based; details: Homo sapiens, read-out: ED50 Col2
Experimental: as §1

[1] = test system: KB, oral epidermoid carcinoma; assay: In vitro cytotoxicity, human tumor panel: KB; type: cell-based; details: Homo sapiens, read-out: ED50 KB
Experimental: as §1

KB-V1, drug resistant KB = assay: In vitro cytotoxicity, human tumor panel: KB-V1 with or without vinblastine; type: cell-based; details: for IC50: Homo sapiens, KB-V1, drug-resistant KB assessed in the absence of vinblastine, read-out: ED50 KB-V1−; for ED50 KB-V1+: drug resistant KB assessed in presence of vinblastine (1 μg/mL)
Experimental: as §1

[2] = test system: LNCaP, hormone-dependent prostate cancer; assay: In vitro cytotoxicity, human tumor panel: LNCaP; type: cell-based; details: Homo sapiens, LNCaP, read-out: ED50 LNCaP
Experimental: as §1

[3] = test system: SW626, human ovarian adenocarcinoma; assay: In vitro cytotoxicity, human tumor panel: SW626; type: cell-based; details: SW626, read-out: ED50 SW626
Experimental: as §1

HCT-15, colon = assay: In vitro multidrug resistance modulation (DINIB synergy): HCT-15; type: cell-based, human; details: increase of cytotoxicity of DINIB 1 × 10^−4 M; modulator μg/mL: verapamil 12.5, cyclosporin A 6.3, pervilleine B 12.5, C 3.1, D 50.0, F 25.0; <25 insignificant, >100 strong synergy
From the text: (§2) Alkaloids 5–7 and 9 were further evaluated for their efficacy as potential modulators of P-glycoprotein. This assay assessed the ability of these test compounds to increase the cytotoxicity of an agent of the MDR phenotype {4,9-dihydro-3-iso-butyl-2-methyl-1-(p-nitrophenacyl)-4,9-dioxo-1H-naphth[2-3-d]imidazolium bromide (DINIB)}, compared with an agent not of the MDR phenotype (5-flurouracil), used as a negative control (73, 74).
(§3) In vitro multidrug resistance assay.

UO-31, renal = assay: In vitro multidrug resistance modulation (DINIB synergy): UO-31; type: cell-based, human; details: increase of cytotoxicity of DINIB 1 × 10^−4 M; modulator μg/mL: verapamil 12.5, cyclosporin A 6.3, pervilleine B 12.5, C 3.1, D 50.0, F 25.0; <25 insignificant, >100 strong synergy
From the text: as §2, §3

CAKI-1, renal = assay: In vitro multidrug resistance modulation (DINIB synergy): CAKI-1; type: cell-based, human; details: increase of cytotoxicity of DINIB 1 × 10^−4 M; modulator μg/mL: verapamil 12.5, cyclosporin A 6.3, pervilleine B 12.5, C 3.1, D 50.0, F 25.0; <25 insignificant, >100 strong synergy
From the text: as §2, §3

LOX IMVI, melanoma = assay: In vitro multidrug resistance modulation (DINIB synergy): LOX IMVI; type: cell-based, human; details: increase of cytotoxicity of DINIB 1 × 10^−4 M; modulator μg/mL: verapamil 12.5, cyclosporin A 6.3, pervilleine B 12.5, C 3.1, D 50.0, F 25.0; <25 insignificant, >100 strong synergy
From the text: as §2, §3

Compound | IC50 (BC1, breast cancer) [µg/mL] | IC50 (Lu1, lung cancer) [µg/mL] | IC50 (Col2, colon cancer) [µg/mL] | IC50 [1] [µg/mL] | IC50 (KB-V1, drug resistant KB) [µg/mL] | ED50 KB-V1+ (KB-V1, drug resistant KB) [µg/mL] | IC50 [2] [µg/mL] | IC50 [3] [µg/mL] | synergy value at a 95% confidence level, HCT-15 (HCT-15, colon) | synergy value at a 95% confidence level, UO-31 (UO-31, renal) | synergy value at a 95% confidence level, CAKI-1 (CAKI-1, renal) | synergy value at a 95% confidence level, LOX IMVI (LOX IMVI, melanoma) | melting point [°C]
COc1cc(C=CC(=O)O[C@@H]2C[C@@H]3[C@@H](OC(=O)C=Cc4cc(OC)c(OC)c(OC)c4)[C@@H](O)[C@H](C2)N3C)cc(OC)c1OC [Compound 7, 3α,6β-di-(3,4,5-trimethoxycinnamoyloxy)-7β-hydroxytropane] | 15 (≈ 24.4 µM) | 15.1 (≈ 24.6 µM) | 4.9 (≈ 7.98 µM) | 11 (≈ 17.9 µM) | 9 (≈ 14.7 µM) | 0.2 | 14.1 (≈ 23 µM) | 6.5 (≈ 10.6 µM) | 758.3 | 562.7 | 387.9 | 13.2 | 59 to 61
COc1cc(C=CC(=O)O[C@H]2C[C@@H]3C[C@H](OC(=O)Cc4ccccc4)C[C@H]2N3C)cc(OC)c1OC [Compound 9, 3α-phenylacetoxy-6β-(3,4,5-trimethoxycinnamoyloxy)-tropane] | > 20 | > 20 | 4.9 (≈ 9.89 µM) | > 20 | > 20 | 0.2 | > 20 | > 20 | 714.7 | 364.4 | 342.1 | 59.2 | 59 to 61
